The target of this test is USP7 (Homo sapiens (Human), UniProt Q93009). In words: USP7 fluorescence polarisation (FP) biochemical assay, ubiquitin-Lys-TAMRA substrate. The note with it: average of at least duplicate experiments. An outline of the steps: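 Full-length His6-USP7 (2.5 nM) incubated ± inhibitor (8-point dilutions, 200 to 0.1 μM before addition) in 50 mM HEPES pH 7.2, 150 mM NaCl, 0.5 mM EDTA, 5 mM DTT, 0.05% BSA, 0.05% CHAPS. Ubiquitin-Lys-TAMRA cleavage followed by FP (ex 530/em 575 nm) every 15 min for 1.5 h; normalised to no-compound control.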

Setting [1] is: Table 4, biochemical assay, read-out: USP7 IC50.
Setting [2] is: USP7 IC50, Table 4, biochemical assay.

Each structure is given as a SMILES string. pIC50: −log10 of the molar value. Read-outs that look alike come from different tables or passages of the source. Some results are limits rather than exact numbers.

Sequence of USP7 (Q93009 whole entry): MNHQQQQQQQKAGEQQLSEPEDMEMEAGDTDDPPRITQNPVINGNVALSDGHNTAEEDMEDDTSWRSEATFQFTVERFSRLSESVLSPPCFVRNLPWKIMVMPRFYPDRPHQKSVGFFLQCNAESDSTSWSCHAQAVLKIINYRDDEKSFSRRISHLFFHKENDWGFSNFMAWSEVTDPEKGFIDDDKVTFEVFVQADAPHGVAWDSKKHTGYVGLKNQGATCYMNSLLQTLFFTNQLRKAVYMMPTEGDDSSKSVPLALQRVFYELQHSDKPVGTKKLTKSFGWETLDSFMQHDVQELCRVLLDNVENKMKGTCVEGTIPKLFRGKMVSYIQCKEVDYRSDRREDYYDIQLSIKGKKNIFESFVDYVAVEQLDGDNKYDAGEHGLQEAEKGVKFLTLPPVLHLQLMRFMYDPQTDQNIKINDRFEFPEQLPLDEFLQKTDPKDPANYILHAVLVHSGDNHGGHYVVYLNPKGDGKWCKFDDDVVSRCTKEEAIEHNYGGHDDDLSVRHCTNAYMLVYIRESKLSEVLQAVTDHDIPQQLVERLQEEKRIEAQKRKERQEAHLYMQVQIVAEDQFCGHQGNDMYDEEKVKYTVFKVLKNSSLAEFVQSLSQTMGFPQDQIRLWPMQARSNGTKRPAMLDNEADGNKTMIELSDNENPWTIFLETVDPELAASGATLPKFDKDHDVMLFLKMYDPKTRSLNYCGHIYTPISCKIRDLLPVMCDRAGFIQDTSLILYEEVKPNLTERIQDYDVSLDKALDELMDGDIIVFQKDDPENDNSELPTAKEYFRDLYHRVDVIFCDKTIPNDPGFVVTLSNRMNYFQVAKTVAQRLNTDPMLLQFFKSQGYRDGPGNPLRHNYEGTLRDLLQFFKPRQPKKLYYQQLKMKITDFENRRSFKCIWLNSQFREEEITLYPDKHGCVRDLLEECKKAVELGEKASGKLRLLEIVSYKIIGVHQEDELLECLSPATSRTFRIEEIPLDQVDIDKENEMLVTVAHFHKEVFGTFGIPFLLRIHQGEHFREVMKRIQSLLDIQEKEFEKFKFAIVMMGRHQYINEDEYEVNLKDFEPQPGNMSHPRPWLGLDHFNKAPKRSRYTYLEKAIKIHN

As to `C[C@H](CC(=O)N1CCC(O)(Cn2cnc(N3CCC(F)(F)CC3)cc2=O)CC1)c1ccccc1` [Example 160, (R)-6-(4,4-difluoropiperidin-1-yl)-3-((4-hydroxy-1-(3-phenylbutanoyl)piperidin-4-yl)methyl)pyrimidin-4(3H)-one], the negative-log IC50 (pIC50) under setting [1] was 3.70 to 6.00.
On the same count and under the same terms, the same measure for `Cn1nc2c(=O)n(CC3(O)CCN(C(=O)CCC4CCC4)CC3)cnc2c1-c1ccc(CN)cc1` [Example 138, 3-(4-(Aminomethyl)phenyl)-6-((1-(3-cyclobutylpropanoyl)-4-hydroxypiperidin-4-yl)methyl)-2-methyl-2H-pyrazolo[4,3-d]pyrimidin-7(6H)-one]: 6.00 to 6.60.
On the same count and under the same terms, with `C=C(C)[C@H](C)CC(=O)N1CCC(O)(Cn2cnc3c(-c4ccccc4)n(C)nc3c2=O)CC1` [Example 35, (R)-6-((1-(3,4-Dimethylpent-4-enoyl)-4-hydroxypiperidin-4-yl)methyl)-2-methyl-3-phenyl-2H-pyrazolo[4,3-d]pyrimidin-7(6H)-one] the figure was 6.00 to 6.60; with `C[C@H](CC(=O)N1CCC(O)(Cn2cnc(N3CCC(c4ccn[nH]4)CC3)cc2=O)CC1)c1ccccc1` [Example 156, (R)-6-(4-(1H-pyrazol-5-yl)piperidin-1-yl)-3-((4-hydroxy-1-(3-phenylbutanoyl)piperidin-4-yl)methyl)pyrimidin-4(3H)-one], 3.70 to 6.00; with `C[C@H](CC(=O)N1CCC(O)(Cn2cnc(N(C)CCO)cc2=O)CC1)c1ccccc1` [Example 166, (R)-3-((4-hydroxy-1-(3-phenylbutanoyl)piperidin-4-yl)methyl)-6-((2-hydroxyethyl)(methyl)amino)pyrimidin-4(3H)-one], 3.70 to 6.00.
Still for that read-out and setting: with `C[C@H](CC(=O)N1CCC(O)(Cn2cnc(N3CCC(N4CCOCC4)C3)cc2=O)CC1)c1ccccc1` (stereo partly drawn) [Example 149, 3-((4-hydroxy-1-((R)-3-phenylbutanoyl)piperidin-4-yl)methyl)-6-(3-morpholinopyrrolidin-1-yl)pyrimidin-4(3H)-one] the figure was 3.70 to 6.00; with `Cn1nc2c(=O)n(CC3(O)CCN(C(=O)c4cnc(C5CC5)o4)CC3)cnc2c1-c1ccccc1` [Example 196, 6-((1-(2-Cyclopropyloxazole-5-carbonyl)-4-hydroxypiperidin-4-yl)methyl)-2-methyl-3-phenyl-2H-pyrazolo[4,3-d]pyrimidin-7(6H)-one], 3.70 to 6.00.
For `O=C(c1cnc(C2CC2)o1)N1CCC(O)(Cn2cnc3c(cc(I)n3-c3ccccc3)c2=O)CC1` [Example 224, 3-((1-(2-Cyclopropyloxazole-5-carbonyl)-4-hydroxypiperidin-4-yl)methyl)-6-iodo-7-phenyl-3H-pyrrolo[2,3-d]pyrimidin-4(7H)-one], the pIC50 under setting [1] was more than 6.60.
Take `C[C@H](CC(=O)N1CCC(O)(Cn2cnc3c(nc(C(F)(F)F)n3C)c2=O)CC1)c1ccccc1` [Example 96, (R)-1-((4-Hydroxy-1-(3-phenylbutanoyl)piperidin-4-yl)methyl)-9-methyl-8-(trifluoromethyl)-1H-purin-6(9H)-one]: the pIC50 under setting [1] is 3.70 to 6.00.
In the case of `CC1(C(=O)N2CCC(O)(Cn3cnc4[nH]c(Cl)cc4c3=O)CC2)CC1` [Example 199, 6-Chloro-3-((4-hydroxy-1-(1-methylcyclopropanecarbonyl)piperidin-4-yl)methyl)-3H-pyrrolo[2,3d]pyrimidin-4(7H)-one], under setting [1], the pIC50 is 3.70 to 6.00.
The same measure, in the same setting: with `CN(C)CC#Cc1c2ncn(CC3(O)CCN(C(=O)C[C@H](c4ccccc4)C(F)(F)F)CC3)c(=O)c2nn1C` [Example 135, (R)-3-(3-(Dimethylamino)prop-1-yn-1-yl)-6-((4-hydroxy-1-(4,4,4-trifluoro-3-phenylbutanoyl)piperidin-4-yl)methyl)-2-methyl-2H-pyrazolo[4,3-d]pyrimidin-7(6H)-one] the figure was 3.70 to 6.00; with `O=C(CC(C1CC1)C1CC1)N1CCC(O)(Cn2cnc(NCCN3CCCC3)cc2=O)CC1` [Example 133, 3-((1-(3,3-Dicyclopropylpropanoyl)-4-hydroxypiperidin-4-yl)methyl)-6-((2-(pyrrolidin-1-yl)ethyl)amino)pyrimidin-4(3H)-one], 6.00 to 6.60.
In the case of `C[C@H](CC(=O)N1CCC(O)(Cn2cnc(N3CC[C@H](N(C)C)C3)cc2=O)CC1)c1ccccc1` [Example 62, 6-((S)-3-(Dimethylamino)pyrrolidin-1-yl)-3-((4-hydroxy-1-((R)-3-phenylbutanoyl)piperidin-4-yl)methyl)pyrimidin-4(3H)-one], under setting [2], the negative logarithm of the IC50 (pIC50) was 6.00 to 6.60.
In the case of `C[C@H](CC(=O)N1CCC(O)(Cn2cnc(NCCN3CCC[C@H]3C)cc2=O)CC1)c1ccccc1` [Example 114, 3-((4-Hydroxy-1-((R)-3-phenylbutanoyl)piperidin-4-yl)methyl)-6-((2-((R)-2-methylpyrrolidin-1-yl)ethyl)amino)pyrimidin-4(3H)-one, Formic Acid], the pIC50 under setting [1] was more than 6.60.
Same read-out and setting: the same measure for `C[C@@H](N)c1ccc(-c2c3ncn(CC4(O)CCN(C(=O)C[C@H](c5ccccc5)C(F)(F)F)CC4)c(=O)c3nn2C)cc1` [Example 75, 3-(4-((R)-1-Aminoethyl)phenyl)-6-((4-hydroxy-1-((R)-4,4,4-trifluoro-3-phenylbutanoyl)piperidin-4-yl)methyl)-2-methyl-2H-pyrazolo[4,3-d]pyrimidin-7(6H)-one]: more than 6.60; for `C[C@H](CC(=O)N1CCC(O)(Cc2cnc(-c3ccccc3)cn2)CC1)c1ccccc1` [Example 115, (R)-1-(4-Hydroxy-4-((5-phenylpyrazin-2-yl)methyl)piperidin-1-yl)-3-phenylbutan-1-one]: 3.70 to 6.00; for `CC(C)c1cc(=O)n(CC2(O)CCN(C(=O)C[C@@H](C)c3ccccc3)CC2)cn1` [Example 81, (R)-3-((4-Hydroxy-1-(3-phenylbutanoyl)piperidin-4-yl)methyl)-6-isopropylpyrimidin-4(3H)-one]: 3.70 to 6.00.
As for `C[C@H](CC(=O)N1CCC(O)(Cn2cnc(NCCN3Cc4cccc(F)c4C3)cc2=O)CC1)c1ccccc1` [Example 86, (R)-6-((2-(4-Fluoroisoindolin-2-yl)ethyl)amino)-3-((4-hydroxy-1-(3-phenylbutanoyl)piperidin-4-yl)methyl)pyrimidin-4(3H)-one, Formic Acid], the pIC50 under setting [2] is 6.00 to 6.60.
As for `CC1(C(=O)N2CCC(O)(Cn3cnc4c(nnn4-c4ccccc4)c3=O)CC2)CC1` [Example 197, 6-((4-Hydroxy-1-(1-methylcyclopropanecarbonyl)piperidin-4-yl)methyl)-3-phenyl-3H-[1,2,3]triazolo[4,5-d]pyrimidin-7(6H)-one], the negative-log IC50 (pIC50) under setting [1] is 3.70 to 6.00.
Same read-out and setting: the same measure for `C[C@H](CC(=O)N1CCC(O)(Cn2cnc(NCC3CCOCC3)cc2=O)CC1)c1ccccc1` [Example 163, (R)-3-((4-hydroxy-1-(3-phenylbutanoyl)piperidin-4-yl)methyl)-6-(((tetrahydro-2H-pyran-4-yl)methyl)amino)pyrimidin-4(3H)-one]: 3.70 to 6.00.
As to `Cc1c(Cl)ncn(CC2(O)CCN(C(=O)C[C@@H](C)c3ccccc3)CC2)c1=O` [Example 44, (R)-6-Chloro-3-((4-hydroxy-1-(3-phenylbutanoyl)piperidin-4-yl)methyl)-5-methylpyrimidin-4(3H)-one], under setting [1], the negative logarithm of the IC50 (pIC50) was 3.70 to 6.00.
Still for that read-out and setting: the same measure for `O=C(C(C1CCC1)C1CCC1)N1CCC(O)(Cn2cnc(NCCN3CCCC3)cc2=O)CC1` [Example 184, 3-((1-(2,2-Dicyclobutylacetyl)-4-hydroxypiperidin-4-yl)methyl)-6-((2-(pyrrolidin-1-yl)ethyl)amino)pyrimidin-4(3H)-one]: 3.70 to 6.00; for `CC1(C(=O)N2CCC(O)(Cn3cnc4c(cc(C#N)n4-c4ccccc4)c3=O)CC2)CC1` [Example 234, 3-((4-Hydroxy-1-(1-methylcyclopropanecarbonyl)piperidin-4-yl)methyl)-4-oxo-7-phenyl-4,7-dihydro-3H-pyrrolo[2,3-d]pyrimidine-6-carbonitrile]: more than 6.60.
Consider `O=C(C[C@H](c1ccccc1)C(F)F)N1CCC(O)(Cn2cnc3c(ncn3-c3ccccc3)c2=O)CC1` [Example 129, (R)-1-((1-(4,4-Difluoro-3-phenylbutanoyl)-4-hydroxypiperidin-4-yl)methyl)-9-phenyl-1H-purin-6(9H)-one], for which the pIC50 under setting [1] was more than 6.60.
In the case of `C[C@H](CC(=O)N1CCC(O)(Cn2cnc(N3CC4(CCC4(F)F)C3)cc2=O)CC1)c1ccccc1` [Example 173, (R)-6-(5,5-difluoro-2-azaspiro[3.3]heptan-2-yl)-3-((4-hydroxy-1-(3-phenylbutanoyl)piperidin-4-yl)methyl)pyrimidin-4(3H)-one], the negative logarithm of the IC50 (pIC50) under setting [1] was 3.70 to 6.00.
The same measure, in the same setting: the same measure for `COc1cc(=O)n(CC2(O)CCN(C(=O)C[C@@H](C)c3ccccc3)CC2)cn1` [Example 9, (R)-3-((4-Hydroxy-1-(3-phenylbutanoyl)piperidin-4-yl)methyl)-6-methoxypyrimidin-4(3H)-one]: 3.70 to 6.00.
The same measure, in the same setting: with `Cn1cc(-c2cccc(-n3c(Cl)cc4c(=O)n(CC5(O)CCN(C(=O)c6cnc(C7CC7)o6)CC5)cnc43)c2)cn1` [Example 211, 6-Chloro-3-((1-(2-cyclopropyloxazole-5-carbonyl)-4-hydroxypiperidin-4-yl)methyl)-7-(3-(1-methyl-1H-pyrazol-4-yl)phenyl)-3H-pyrrolo[2,3-d]pyrimidin-4(7H)-one] the figure was more than 6.60.
For the molecule `Cn1nc2c(=O)n(CC3(O)CCN(C(=O)C[C@H](c4ccccc4)C(F)(F)F)CC3)cnc2c1C1CCCCC1` [Example 136, (R)-3-Cyclohexyl-6-((4-hydroxy-1-(4,4,4-trifluoro-3-phenylbutanoyl)piperidin-4-yl)methyl)-2-methyl-2H-pyrazolo[4,3-d]pyrimidin-7(6H)-one], under setting [2], the pIC50 is 6.00 to 6.60.
As for `C[C@H](CC(=O)N1CCC(O)(Cn2cnc(N3CCN(C)C(=O)C3)cc2=O)CC1)c1ccccc1` [Example 168, (R)-3-((4-hydroxy-1-(3-phenylbutanoyl)piperidin-4-yl)methyl)-6-(4-methyl-3-oxopiperazin-1-yl)pyrimidin-4(3H)-one], under setting [1], the pIC50 was 3.70 to 6.00.

In general, pIC50 refers to −log10 of the IC50, conventionally taken in molar units.

(Values after patent US10766903B2 (ALMAC DISCOVERY LIMITED, priority 2016, dated 2020).)
